Here are results for 16 compounds from paper PMC11940229, “How Plant Polyhydroxy Flavonoids Can Hinder the Metabolism of Cytochrome 3A4” (Biomedicines, 2025).

Data set [1] deals with T1, CYP3A4 (Homo sapiens, UniProt P08684).
T1 construct: purchased ThermoFisher Scientific Cat. no; 2856
Put plainly: Vivid CYP3A4 Red Screening Kit fluorimetric inhibition assay (BOMR substrate). The data set is classed as biochemical. The note with it: human. Here is the method:
(§1) Flavone, galangin, resokaempferol, myricetin, and gossypetin were purchased from Indofine Chemical Company, Inc. (Hillsborough, NJ, USA). Kaempferol and scutellarein were obtained from Extrasynthese (Genay, France). […] Fisetin was obtained from Biosynth (Staad, Switzerland). […] Dimethyl sulfoxide (DMSO) was obtained from VWR International (Radnor, PA, USA), and acetonitrile was obtained from Merck KGaA (Darmstadt, Germany). The effect on CYP3A4 catalytic performance was evaluated using the Vivid® CYP3A4 Screening Kit (ThermoFischer Scientific, Waltham, MA, USA), following the indications of the manufacturer. This kit assesses how tested compounds affect the rate of fluorescence increase caused by the breakdown of a resorufin-blocked dye substrate by the human CYP3A4 enzyme. The enzyme promoted the cleavage of substrate at two different bonds, both generating a red highly fluorescent dye, in order to minimize spectral interferences caused by other compounds in the reaction medium. […] This setup helped to further circumvent interference from highly fluorescent compounds like NADPH, which are excited at UV wavelengths. […] The last enzyme and its substrate work as NADPH regenerating system since it catalyzes its formation through NADP^+, added subsequently. […] The fluorescence measurements were performed every 30 s for 30 min in a microplate reader with plate shaking and temperature control, 29 °C (Cytation 5, BIO-TEK, Winooski, VT, USA). The percentage of inhibition was calculated based on the reaction initial rates measured from the constant slope values of the fluorescence–time charts. […] The statistical analysis comprised both comparisons by the Student’s t-test for mean % inhibition and one-way analysis of variance (ANOVA) for the comparison between concentrations on the IC50. […] Differences were significant for p < 0.05.

Data set [2] has as its system CYP3A4. To be noted: BCS, fluorescence, cited from earlier work.
Data set [3] has as its system CYP3A4. The note with it: RLM, HPLC, cited from earlier work.
The target in data set [4] is T2, recombinant human CYP3A4 (Baculosomes) (Homo sapiens, UniProt P08684).
T2 construct: purchased ThermoFisher Scientific Cat. no; 2856
Put plainly: Vivid CYP3A4 Red Screening Kit fluorimetric inhibition assay (BOMR substrate). The note with it: for IC50: Baculosomes, fluorescence, positive control KTZ, mean ± SEM; for Effect on CYP3A4 activity (in words): up to 50 µmol/L. In kind it is biochemical. Here is the method: as §1

Data set [5] relates to CYP3A4. The note with it: HLM, cited from earlier work.
For data set [6], the system named is CYP3A4. More on the design: method as in PMID 31756459. To be noted: cited from earlier work.
The subject of data set [7] is CYP3A4. The note with it: substrate BOMCC, enzyme not given, positive control ERYT, fluorescence; cited from earlier work.
[8] abbreviates: recombinant enzyme, pH 8, CYP3A4 Inhibition (%) (50 µmol/L).
Setting [9] is: substrate TST, positive control KTZ, HPLC-UV.
[10] abbreviates: recombinant human CYP3A4 Baculosomes, pH 8, probe Vivid BOMR substrate, 50 µmol/L compound, BOMR substrate, mean ± SEM, negative = activation, read-out: CYP3A4 Inhibition (%) (50 µmol/L).

Where “and” joins values, the source holds several entries; their conditions need not be identical. Equal values may be shown once. Read-outs that look alike come from different tables or passages of the source. Bounds are passed on as bounds.

T2 sequence (P08684 whole entry): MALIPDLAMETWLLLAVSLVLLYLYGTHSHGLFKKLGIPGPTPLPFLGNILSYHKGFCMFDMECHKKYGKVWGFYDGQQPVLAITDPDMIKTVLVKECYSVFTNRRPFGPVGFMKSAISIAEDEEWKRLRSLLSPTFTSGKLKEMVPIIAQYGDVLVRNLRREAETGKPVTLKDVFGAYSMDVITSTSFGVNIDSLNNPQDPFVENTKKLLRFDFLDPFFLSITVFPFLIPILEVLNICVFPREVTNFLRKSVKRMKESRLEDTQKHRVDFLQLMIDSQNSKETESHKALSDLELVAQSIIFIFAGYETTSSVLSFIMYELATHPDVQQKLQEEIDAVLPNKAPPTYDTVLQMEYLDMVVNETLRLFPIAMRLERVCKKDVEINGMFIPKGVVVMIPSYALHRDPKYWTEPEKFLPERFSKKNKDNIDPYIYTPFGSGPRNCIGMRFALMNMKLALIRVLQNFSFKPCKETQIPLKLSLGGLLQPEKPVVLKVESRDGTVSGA
T1 sequence (P08684 whole entry): as above

As to `O=c1cc(-c2ccc(O)cc2)oc2cc(O)cc(O)c12` [Apigenin], the inhibition at 30 min, 50 µmol/L in data set [1] (setting [8]) amounted to 23 ± 8%.

In the case of `O=c1cc(-c2ccccc2)oc2cc(O)c(O)c(O)c12` [Baicalein], the half-maximal inhibitory concentration (IC50) in data set [2] (substrate BFC, positive control KTZ) was 9.2 µM; in data set [3] (substrate TST), 12 µM; in data set [4] (IC50, BOMR substrate) it was 15 ± 5 µM; in data set [5] (different substrates, fluorescence), 7.56 to 26.4 µM; in data set [5] (setting [9]), 9.6 ± 1.18 µM. As for `O=c1cc(-c2ccccc2)oc2cc(O)cc(O)c12` [Chrysin], the inhibition at 30 min, 50 µmol/L in data set [1] (setting [8]) amounted to 28 ± 17%.

For `O=c1c(O)c(-c2ccc(O)c(O)c2)oc2cc(O)ccc12` [Fisetin], the inhibition at 30 min, 50 µmol/L in data set [1] (setting [10]) worked out at 30 ± 13%. For the compound `O=c1cc(-c2ccccc2)oc2ccccc12` [Flavone], in data set [1] (setting [10]), the inhibition at 30 min, 50 µmol/L is -179 ± 73%. The “Effect on CYP3A4 activity (in words)” value in data set [4] is on record as “could act as an activator of the enzyme”. Moreover, the “Activation of CYP3A4” value in data set [6] is reported as 94.65 ± 7.10%. For the compound `O=c1c(O)c(-c2ccccc2)oc2cc(O)cc(O)c12` [Galangin], in data set [1] (setting [10]), the inhibition at 30 min, 50 µmol/L is 4 ± 9%.

Regarding `O=c1c(O)c(-c2ccc(O)c(O)c2)oc2c(O)c(O)cc(O)c12` [Gossypetin], the inhibition at 30 min, 50 µmol/L in data set [1] (setting [8]) is at least 50%. Moreover, in data set [4] (IC50, BOMR substrate), the IC50 is 40 µM and 40.1 µM.

As to `O=c1c(O)c(-c2ccc(O)cc2)oc2c(O)c(O)cc(O)c12` [Herbacetin], the IC50 in data set [4] (BOMR substrate, read-out: IC50) is 32 µM and 31.5 µM; in data set [5] (UPLC-MS/MS), under 10 µM. In the case of `O=c1c(O)c(-c2ccc(O)cc2)oc2cc(O)cc(O)c12` [Kaempferol], the inhibition at 30 min, 50 µmol/L in data set [1] (setting [10]) is 24 ± 8%. For `O=c1cc(-c2ccc(O)c(O)c2)oc2cc(O)cc(O)c12` [Luteolin], the IC50 was 57.1 ± 16.1 µM in data set [7]; 31 µM and 31.2 µM in data set [4] (BOMR substrate, read-out: IC50); 4.62 ± 1.26 µM in data set [5] (setting [9]); 6.8 µM in data set [5] (substrate TST, positive control KTZ, RP-HPLC). Also, the inhibition at 30 min, 50 µmol/L in data set [1] (setting [10]) was at least 50%.

For `O=c1c(O)c(-c2ccc(O)cc2O)oc2cc(O)cc(O)c12` [Morin], in data set [1] (setting [10]), the inhibition at 30 min, 50 µmol/L was determined as 38 ± 11%. Regarding `O=c1c(O)c(-c2cc(O)c(O)c(O)c2)oc2cc(O)cc(O)c12` [Myricetin], the inhibition at 30 min, 50 µmol/L in data set [1] (setting [8]) turned out to be 32 ± 12%. Take `O=C1C[C@@H](c2ccc(O)cc2)Oc2cc(O)cc(O)c21` [Naringenin]: the inhibition at 30 min, 50 µmol/L in data set [1] (setting [10]) is -11 ± 5%. In addition, the “Effect on CYP3A4 activity (in words)” value in data set [4] is on record as “no inhibitory effect was noticed”. Take `O=c1c(O)c(-c2ccc(O)c(O)c2)oc2cc(O)cc(O)c12` [Quercetin]: the concentration for half-maximal inhibition (IC50) is […] in data set [2] (substrate BOMCC, positive control Erythro) and […] in data set [3] (substrate RPG, positive control KTZ). Also, the inhibition at 30 min, 50 µmol/L in data set [1] (setting [10]) was at least 50%. Take `O=c1c(O)c(-c2ccc(O)cc2)oc2cc(O)ccc12` [Resokaempferol]: the inhibition at 30 min, 50 µmol/L in data set [1] (setting [10]) is 38 ± 7%. As for `O=c1cc(-c2ccc(O)cc2)oc2cc(O)c(O)c(O)c12` [Scutellarein], the concentration for half-maximal inhibition (IC50) in data set [4] (BOMR substrate, read-out: IC50) was 19 µM and 19.1 µM.

In general, IC50 refers to the concentration that inhibits the measured activity by half.
